According to patent publication US8603498B2, “Lipo-phosphated or lipo-sulphated compound, compositions comprising it and topical uses thereof” (Sederma, S.A.S., priority 2010, dated 2013):

Experiments:
[1] = tested on: hyaluronic acid; experiment: Synthesis of hyaluronic acid by human keratinocytes (ELISA); type: cell-based; settings: for hyaluronic acid ng/10^e6 cells: 3 days, supernatant
Method: Protocol: Human keratinocytes are humains were cultivated in MW24 plates for 24 h. Cells were contacted or not with the Lipo-Phosphomalate for 3 days. Culture surpernatants were taken and an assay of the quantity of hyaluronic acid was achieved. Retinoic acid was used as the positive control.

[2] = tested on: cholesterol; experiment: Cholesterol in keratinocytes by HPTLC; type: cell-based, human; settings: 5 ppm, 7 days
Method: (§1) The same protocol was followed as before but a larger quantity of keratinocyes was used on this occasion because of the limits of detection of the apparatus. After 7 days, the layers were rinsed, lipids extracted using solvents before being deposited on a thin-layer chromatography plate using an automated device. After migration and detection, the bands were analysed and quantified based on a range of standard lipids deposited on the same plate.

[3] = tested on: non hydroxylated ceramides; experiment: Non hydroxylated ceramides in keratinocytes by HPTLC; type: cell-based, human; settings: 5 ppm
Method: as §1
At the same time as the HPTLC cholesterol assay, an assay of hydroxylated and non-hydroxylated ceramides was carried out on the extracts.

[4] = tested on: transglutaminase-1 gene; experiment: DNA-Array study, transglutaminase-1 gene; type: cell-based; settings: in the presence of solubilised Lipo-Phosphomalate
Source text: (§2) In addition, a DNA-Array study has shown that the transglutaminase-1 and involucrin genes are over-expressed in the network with other genes essential for the formation of the corinfied layer in the presence of solubilised Lipo-Phosphomalate.

[5] = tested on: fibroblasts; experiment: Lipid production in fibroblasts; type: cell-based
Source text: (§3) This lipid production by the Lipo-Phosphomalate was not observed in fibroblasts or melanocytes. It is therefore a specific effect related to the metabolism of keratinocyte during its differentiation.

[6] = tested on: melanocytes; experiment: Lipid production in melanocytes; type: cell-based
Source text: as §3

[7] = molecular target: T1, tyrosinase (Homo sapiens, UniProt P14679); experiment: Tyrosinase activity of human melanocytes; type: cell-based; settings: 5 days
T1 construct: endogenous in cells; host or cells: human melanocytes (homogenates)
T1 sequence (P14679 19-529): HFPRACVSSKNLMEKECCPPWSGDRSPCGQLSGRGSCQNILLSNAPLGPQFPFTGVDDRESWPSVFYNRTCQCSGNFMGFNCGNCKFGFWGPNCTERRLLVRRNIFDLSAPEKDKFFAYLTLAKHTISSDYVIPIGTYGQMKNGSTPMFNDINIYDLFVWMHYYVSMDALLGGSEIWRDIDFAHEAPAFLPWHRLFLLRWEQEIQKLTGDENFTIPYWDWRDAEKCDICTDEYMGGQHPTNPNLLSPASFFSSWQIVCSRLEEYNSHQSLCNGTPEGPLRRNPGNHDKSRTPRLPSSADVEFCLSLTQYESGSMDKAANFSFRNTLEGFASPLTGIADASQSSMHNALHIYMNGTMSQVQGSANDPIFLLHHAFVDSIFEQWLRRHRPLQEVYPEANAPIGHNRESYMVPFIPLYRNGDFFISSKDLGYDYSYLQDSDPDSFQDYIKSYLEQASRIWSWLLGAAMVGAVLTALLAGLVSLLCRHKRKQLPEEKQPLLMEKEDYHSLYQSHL
Method: Human melanocyte are sowed and contacted with the […] for 5 days. At the end of the incubation period, the residual tyrosinase activity was measured in cell homogenates.

[8] = tested on: filaggrin/profilaggrin; experiment: Filaggrin synthesis on human keratinocytes (immunofluorescent method); type: cell-based; settings: for Filaggrin/profilaggrin (UFA/10^6 cell.): 21 days contact; for Filaggrin/profilaggrin Change (%): vs control
Method: Protocol: Human keratinocytes were cultivated up to confluence. The cells were then placed in contact/not contact with the solubilized Lipo-Phosphomalate for 21 days. At the end of this contact period, labelling common to both filaggrin and profilaggrin was carried out on cell layers using specific antibodies. Labelling intensity was analysed on photos (n=15 photos) and compared to that obtained for the negative control and for vitamin D3 at 10^−7M used as a positive differentiation control.

[9] = tested on: involucrin gene; experiment: DNA-Array study, involucrin gene; type: cell-based; settings: in the presence of solubilised Lipo-Phosphomalate
Source text: as §2

[10] = tested on: triglycerides; experiment: Synthesis of intracellular triglycerides in 3T3-L1 cells (enzymatic method); type: cell-based
Method: 3T3-L1 cells were cultivated until sub-confluence, then induced to differentiate with the appropriate mixture with or without the Lipo-Phosphomalate at different concentrations. After 3 days of incubation, the differenciation mixture is replaced by a new maintaining culture medium, in the presence or not of the Lipo-Phosphomalate. After 3 days of incubation, the quantity of intracellular triglycerides is measured by enzymatic method.

[11] = tested on: matriptase; experiment: Production of matriptase in cultured human keratinocytes by immunolabelling; type: cell-based; settings: for Matriptase Change (%): vs control
[12] = tested on: CD44; experiment: CD44 synthesis by human keratinocytes (immunological labeling); type: cell-based; settings: 5 ppm, 22 days
Source text: Human keratinocytes were cultivitated in 35 mm box to confluence. Cells are contacted or not with the Lipo-Phosphomalate for 22 days. At the end of this contact period, the cells are fixed and an immunological labeling of the CD44 is made using specific antibodies.

[13] = tested on: transglutaminase; experiment: Transglutaminase activity in keratinocytes by enzymology (fluorescent substrate); type: cell-based, human; settings: 5 ppm, 14 days; for Enzymology % Change: vs control
Source text: At the end of the 14-day contact period, the cells were placed in contact with a fluorescent synthetic transglutaminase substrate. Metabolisation of the substrate via transglutaminase will allow the fixation in the intracellular protein matrix. After rinsing, the non fixed fluorescent substrate is eliminated and the fluorescence fixed in the cells by the enzyme is quantified.

[14] = tested on: transglutaminase-1 m-RNA; experiment: Transglutaminase-1 m-RNA in keratinocytes by qRT-PCR; type: cell-based, human; settings: 5 ppm, 14 days; for m-RNA % change: after normalisation by the housekeeping gene
Source text: ByqRT-PCR: Human keratinocytes were placed in contact/not placed in contact with solubilised for 14 days. At the end of the contact period, the cultures were stopped and m-RNA allowing production of transglutaminase-1 protein was quantified using the RT-PCR method.
After extraction and purification of the m-RNA, copies are made in DNA using a Reverse Transcriptase (RT). The number of copies of a given m-RNA (here that of TGase) is thereafter amplified using two oligonucleotides (called primers) specific to the gene of TGase and to an enzyme (PCR=polymerase chain reaction) during a series of amplification cycles, each of which doubling the number of copies present. The result of this amplication is measured by fluorescence. Ct is the number of cycles required to achieve a given fluorescence level (arbitrarily set). It is clear, that the more m-RNA of a given gene present in the starting culture there are, the fewer cycles (Ct) are needed to reach the set level of fluorescence.

[15] = 5 ppm, listed as Solubilised Lipo-Phosphomalate
[16] = 5 ppm, listed as solubilised Lipo-Phosphomalate
[17] = listed as Solubilised Lipo-Phosphomalate
[18] = listed as solubilised Lipo-Phosphomalate

SMILES: CCCCCCCCCCCCCCOC(=O)CC(OP(=O)(O)O)C(=O)O (centres unmarked) [Lipo-Phosphomalate, 2-phosphate-succinic-acid-4-tetradecyle ester]
- hyaluronic acid % Change/control ([1]; 1.67 ppm): +16%; p < 0.01
- hyaluronic acid ng/10^e6 cells ([1]; 1.67 ppm): 1015 +/− 46 ng/10^e6 cells
- hyaluronic acid % Change/control ([1]; 5 ppm): +57%; p < 0.01
- hyaluronic acid ng/10^e6 cells ([1]; 5 ppm): 1374 +/− 50 ng/10^e6 cells
- hyaluronic acid % Change/control ([1]; 8.33 ppm): +69%; p < 0.01
- hyaluronic acid ng/10^e6 cells ([1]; 8.33 ppm): 1480 +/− 51 ng/10^e6 cells
- HPTLC Cholesterol (pg/10^6 cell.) [2]: 30.89 ± 7.20 pg/10^6 cell.
- HPTLC Cholesterol % Change ([2]; vs control): +53%; p < 0.05
- Non hydroxylated Ceramides (pg/10^6 cell.) ([3]; 7 days): 8.41 ± 1.30 pg/10^6 cell.
- Non hydroxylated Ceramides % Change ([3]; vs control): +256%; p < 0.01
- transglutaminase-1 gene expression (DNA-Array) [4]: over-expressed
- lipid production (cholesterol, ceramides) [5]: not observed
- lipid production (cholesterol, ceramides) [6]: not observed
- tyrosinase activity Variation (%) ([7]; 10 ppm): −21%; p < 0.01
- tyrosinase activity Variation (%) ([7]; 12 ppm): −28%; p < 0.01
- tyrosinase activity Variation (%) ([7]; 15 ppm): −31%; p < 0.01
- Filaggrin/profilaggrin (UFA/10^6 cell.) ([8]; 1.5 ppm): 3.04 ± 1.21 UFA/10^6 cell.
- Filaggrin/profilaggrin Change (%) ([8]; 1.5 ppm): +119%; p < 0.01
- Filaggrin/profilaggrin (UFA/10^6 cell.) ([8]; 5 ppm): 5.00 ± 1.58 UFA/10^6 cell.
- Filaggrin/profilaggrin Change (%) [8, 15]: +259%; p < 0.01
- Filaggrin/profilaggrin Change (%) [8, 16]: +259%
- involucrin gene expression (DNA-Array) [9]: over-expressed
- intracellular triglycerides % Change/control ([10]; 10 ppm): +112%; p < 0.01
- intracellular triglycerides % Change/control ([10]; 15 ppm): +210%; p < 0.01
- Matriptase (UFA/10^6 cell.) ([11]; 1.5 ppm): 2.27 ± 0.47 UFA/10^6 cell.
- Matriptase Change (%) ([11]; 1.5 ppm): +125%; p < 0.01
- Matriptase (UFA/10^6 cell.) ([11]; 5 ppm): 4.08 ± 1.56 UFA/10^6 cell.
- Matriptase Change (%) [11, 15]: +304%; p < 0.01
- Matriptase Change (%) [11, 16]: +304%
- CD44 % Variation/control [12]: +587%; p <
- CD44 UFA/10^6 cells [12]: 27.20 +/− 16.5 UFA/10^6 cells
- CD44 variation/control (times) [12]: 0.01 => ×7
- Enzymology Transglutaminase (UFA/10^6 cell.) [13]: 516 ± 63 UFA/10^6 cell.
- Enzymology % Change [13, 17]: +124%; p < 0.01
- Enzymology % Change [13, 18]: ~+100%
- m-RNA % change [14, 17]: +101%; p < 0.01
- m-RNA % change [14, 18]: ~+100%
- m-RNA Number of cycles: Ct ([14]; control 24.60 ± 0.42): 23.25 ± 0.46
